Results: US20250152556A1, “ETRASIMOD FOR USE IN TREATING S1P1 RECEPTOR-ASSOCIATED DISORDERS IN COMBINATION WITH HORMONE TREATMENT” (Arena Pharmaceuticals, Inc., priority 2022, published 2025)

Legend:
[1] = cited from earlier work
ovarian activity = test: Phase 1 study: PD markers of ovarian activity (FSH, LH, estradiol, progesterone, SHBG, TVUS/Hoogland score); type: in vivo, human; conditions: Study Drug 2 mg qd with OC
Excerpt: (§1) Secondary objectives of the study were: • To assess the concentrations of follicle stimulating hormone (FSH), luteinizing hormone (LH), estradiol, and progesterone during and after dosing with the monophasic OC alone and when co-administered with Study Drug in healthy premenopausal female subjects. • To evaluate transvaginal ultrasound (TVUS) and Hoogland scores on Days 1 and 11±1 in Period 1 and Period 2 in healthy premenopausal female subjects. • To evaluate sex hormone binding globulin (SHBG) concentrations on Days 1 and 21 in Period 1 and Period 2 in healthy premenopausal female subjects. • To evaluate the steady-state PK of Study Drug when co-administered with the monophasic OC in healthy premenopausal female subjects. • To assess complete blood count (CBC) including differential, absolute lymphocyte count lowering from baseline, and platelet count upon administration of monophasic OC alone and when co-administered with Study Drug in healthy premenopausal female subjects. • To evaluate the safety and tolerability of Study Drug when co-administered with the monophasic OC in healthy premenopausal female subjects.
On Day 1, baseline CBC, FSH, LH, estradiol, progesterone, TVUS, and SHBG were obtained, and then subjects received OC dosing. The TVUS were performed on Day −1 or Day 1. The OC PK was done on Days 21 to 22. […]

[2] = Phase 1 study: steady-state PK of Study Drug co-administered with OC; type: in vivo, human; conditions: Day 49, Period 2, Study Drug 2 mg qd + OC; compared with Study Drug given alone in previous studies
Excerpt: as §1
All subjects were co-administered Study Drug 2 mg qd with OC for 21 days (Days 29 to 49; test treatment), followed by a 7-day dose-free period (Days 50 to 56). On Days 49 to 50, subjects underwent assessments for PK of Study Drug and OC. […]

lymphocyte counts = test: Phase 1 study: lymphocyte counts (CBC); type: in vivo, human
Excerpt: as §1
Subjects were administered 2 mg Study Drug, specifically, the L-arginine salt of Compound 1, i.e., Compound 2, qd on Days 23 to 28. […]

[3] = Phase 1 study: safety and tolerability (AEs, 12-lead ECG, Holter, laboratory, vital signs); type: in vivo, human
Method: Subjects were administered 2 mg Study Drug, specifically, the L-arginine salt of Compound 1, i.e., Compound 2, qd on Days 23 to 28. Subjects were fitted with a Holter monitor and 24-hour continuous electrocardiogram (ECG) recording was performed starting before the Study Drug dose on Day 23 of Period 1 until Day 24 of Period 1.
All subjects were co-administered Study Drug 2 mg qd with OC for 21 days (Days 29 to 49; test treatment), followed by a 7-day dose-free period (Days 50 to 56). On Days 49 to 50, subjects underwent assessments for PK of Study Drug and OC. Further PD assessments and safety evaluations were performed as described in the schedules of assessments and procedures. Subjects were fitted with a Holter monitor and 24-hour continuous ECG recording was performed starting before the Study Drug dose on Day 49 of Period 2 until Day 50 of Period 2.
Subject safety and tolerability were monitored during the study using standard measures, including adverse event (AE) monitoring, orthostatic vital signs, 12-lead ECGs, continuous ECG recordings (Holter), clinical laboratory evaluations, physical examinations, and concomitant medication usage.
• Evaluations of AEs, orthostatic vital signs, 12-lead ECGs, continuous ECG recording (Holter), clinical laboratory evaluations, physical examinations, concomitant medications

[4] = parameters: species or system human; conditions: in vivo
Method: A phase 1, open-label, repeat-dose, two-way, single-sequence study was conducted to evaluate the effect of Compound 1, or a pharmaceutically acceptable salt, hydrate, or solvate thereof, (“Study Drug”) on the pharmacokinetics and pharmacodynamics of a monophasic oral contraceptive (OC) in healthy premenopausal female subjects.
The primary objective of the study was to evaluate the pharmacokinetics (PK) of a monophasic OC (30 μg ethinylestradiol [EE] and 150 μg levonorgestrel [LVG]) alone and when co-administered with repeated doses of Study Drug in healthy premenopausal female subjects.
All subjects received monophasic OC once daily (qd) for 21 days (Days 1 to 21; reference treatment) followed by a 7-day OC dose-free period (Days 22 to 28). […]
Blood samples for plasma PK evaluation of EE, LVG, and Study Drug were collected. The following PK parameters were determined for EE, LVG, and/or Study Drug and, if warranted, metabolites thereof. • Cmax,ss maximum plasma concentration at steady-state • Cmin,ss plasma concentration at 24-hours postdose at steady-state • Tmax,ss time to Cmax at steady-state • AUCtau,ss area under the plasma concentration-time curve (AUC) during the dosing interval (tau) at steady-state • CLSS/F Apparent plasma clearance of drug after extravascular administration at steady-state

[5] = after the first dose (Day 23), 2 mg
[6] = repeat dosing at steady-state (Day 49), 2 mg qd

O=C(O)C[C@H]1CCc2c1[nH]c1ccc(OCc3ccc(C4CCCC4)c(C(F)(F)F)c3)cc21 [Compound 1, (R)-2-(7-(4-cyclopentyl-3-(trifluoromethyl)benzyloxy)-1,2,3,4-tetrahydrocyclopenta[b]indol-3-yl)acetic acid]
endoscopic and symptomatic improvements versus placebo ([1]; Phase 2, ulcerative colitis patients, 2 mg QD for 12 weeks): clinically meaningful and statistically significant
safety and tolerability in adult subjects ([1]; approximately 281 adult subjects, various doses, Phase 1 single doses up to 5 mg, repeated up to 4 mg QD): safe and well-tolerated
duration of sustained beneficial effects ([1]; open-label extension study): up to 46 weeks

N=C(N)NCCC[C@H](N)C(=O)O.O=C(O)C[C@H]1CCc2c1[nH]c1ccc(OCc3ccc(C4CCCC4)c(C(F)(F)F)c3)cc21 [Compound 2, 1:1 salt of (R)-2-(7-(4-cyclopentyl-3-(trifluoromethyl)benzyloxy)-1,2,3,4-tetrahydrocyclopenta[b]indol-3-yl)acetic acid with L-arginine]
impact of Study Drug on PD performance of the OC (FSH, LH, estradiol, progesterone, SHBG, TVUS/Hoogland score) (ovarian activity): no apparent clinically relevant impact
Study Drug steady-state plasma exposure measures (Cmax,ss, Cmin,ss, AUCtau,ss) [2]: generally consistent with previous study findings
mean lymphocyte counts relative to mean baseline (Day 23) after discontinuation (lymphocyte counts; Day 56, 7 days after discontinuation of study treatment): 94%
mean lymphocyte count reduction from mean baseline (Day 23) (lymphocyte counts; Period 2, Study Drug 2 mg qd + OC, Day 49): −56.7%
clinically significant abnormalities of 12-lead ECG parameters including PR interval and QT interval ([3]; Days 23 or 49): No subject had an ECG with clinically significant abnormalities
HR lowering effects, continuous Holter ECG recording [3, 5]: typically mild
HR lowering effects, safety 12-lead ECG [3, 5]: typically mild
safety or tolerability events of concern ([3]; conclusion, coadministration with OC): No safety or tolerability events of concern
HR lowering effects, continuous Holter ECG recording [3, 6]: less impacted
HR lowering effects, safety 12-lead ECG [3, 6]: less impacted

C#C[C@]1(O)CC[C@H]2[C@@H]3CCc4cc(O)ccc4[C@H]3CC[C@@]21C [Ethinylestradiol (EE), ethinylestradiol]
change in peak (Cmax,ss) and total (AUCtau,ss) exposure measures when OC coadministered with ETR vs OC alone [4]: minor-to-moderate increases

C#C[C@]1(O)CC[C@H]2[C@@H]3CCC4=CC(=O)CC[C@@H]4[C@H]3CC[C@@]21CC [Levonorgestrel (LVG), levonorgestrel]
change in peak (Cmax,ss) and total (AUCtau,ss) exposure measures when OC coadministered with ETR vs OC alone [4]: minor-to-moderate increases
